Reference: patent publication US20240002441A1, “PEPTIDES AND USES THEREOF IN MODULATION OF AMYLOID-BETA PROTEIN DEGRADING PROTEASES” (priority 2020, published 2024)

Tests used:
MMP-2 = biological target: T1, MMP-2 (Homo sapiens, UniProt P08253); assay: QFS assay of Aβ-degrading enzymes: MMP-2 (Example 6); format: biochemical; details: MMP2 0.50 ng/μL activated with p-aminophenylmercuric acetate
T1 construct: purchased Sigma Aldrich SRP6270-10UG
T1 sequence (P08253 110-660): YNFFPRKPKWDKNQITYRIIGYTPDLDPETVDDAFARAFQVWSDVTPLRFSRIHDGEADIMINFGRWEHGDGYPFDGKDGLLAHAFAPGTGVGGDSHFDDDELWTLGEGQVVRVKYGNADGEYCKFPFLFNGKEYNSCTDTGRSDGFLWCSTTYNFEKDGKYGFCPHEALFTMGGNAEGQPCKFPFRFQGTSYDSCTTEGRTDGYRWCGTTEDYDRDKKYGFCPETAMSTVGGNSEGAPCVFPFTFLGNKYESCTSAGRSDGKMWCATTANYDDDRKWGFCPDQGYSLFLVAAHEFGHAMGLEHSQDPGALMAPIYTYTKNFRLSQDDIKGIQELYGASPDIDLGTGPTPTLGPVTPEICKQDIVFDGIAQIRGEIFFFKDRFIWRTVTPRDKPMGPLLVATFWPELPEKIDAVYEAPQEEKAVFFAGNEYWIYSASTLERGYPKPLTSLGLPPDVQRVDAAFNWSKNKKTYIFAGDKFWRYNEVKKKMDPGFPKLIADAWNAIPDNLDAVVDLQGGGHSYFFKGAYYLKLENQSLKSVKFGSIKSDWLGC
Protocol: Plate reader-based enzyme assays were performed using a quenched fluorescent substrate (QFS) in a 96-well format using a SpectraMAX M4 Microplate reader (Molecular Devices). The increase in fluorescence following addition of QFS (40 μM) was taken as evidence of enzyme activity. Fluorescence was monitored over 2 h at 37° C. using κEx=320 nm and λEm=405 nm. Assays were conducted in black 96-well plates. Specific enzyme activity was expressed as a rate of substrate cleavage calculated using a standard curve of 7-methoxy-coumarin-4-acetic acid.
In all plate reader-based enzyme assays using QFS, the reaction rate (μmol of substrate cleaved/min) was calculated using linear regression analysis (GraphPad Prism software version 8.01). The reaction rates calculated were used to generate the enzyme kinetic parameters Vmax and Km through non-linear regression analysis (GraphPad Prism software, version 8.01; Michaelis-Menten equation). Where indicated, enzyme activity in the presence of peptide was expressed as a % of the enzyme alone. Data were expressed as mean±SEM and statistical significance was determined using t-tests or one-way ANOVAs followed by Tukey's post-hoc test. P<0.05 was considered as statistically significant. […]
SEQ ID NO:2 was assessed in a QFS assay against enzymes NEP, ECE1, ECE2, ACE1, ACE2, IDE and MMP-2 using the method in Example 2 and the following procedure. […]

STZ diabetic mouse model = assay: STZ diabetic mouse model, inflammation and fibrosis (Example 12); format: in vivo; details: 1 mg/kg subcutaneously by minipump, 4 weeks
Protocol: Mice were divided into two groups, all mice were treated with STZ (150 mg/kg) 1 week before starting treatment. Prior to STZ treatment, urine and blood samples were taken and a blood glucose test undertaken. Similarly, before treatment began, one week post STZ administration, urine and blood samples were taken and blood glucose was assessed. The two treatment groups were then treated with either vehicle only or SEQ ID NO: 2 (1 mg/kg) subcutaneously by minipump. The mice were then monitored for 4 weeks before sacrifice. Monitoring included assessing the weight of each animal every day, and taking urine and blood samples and measuring blood glucose at 2 weeks post treatment and immediately before sacrifice.

NEP = biological target: T2, NEP (Homo sapiens, UniProt P08473); assay: Cleavage of synthetic Aβ42 by NEP, LCMS (Example 7); format: biochemical; details: NEP 0.15 ng/μL, peptide 9 μM, Aβ42 0.05 μg/μL
T2 construct: purchased R & D systems 1182-ZNC-010
T2 sequence (P08473 whole entry): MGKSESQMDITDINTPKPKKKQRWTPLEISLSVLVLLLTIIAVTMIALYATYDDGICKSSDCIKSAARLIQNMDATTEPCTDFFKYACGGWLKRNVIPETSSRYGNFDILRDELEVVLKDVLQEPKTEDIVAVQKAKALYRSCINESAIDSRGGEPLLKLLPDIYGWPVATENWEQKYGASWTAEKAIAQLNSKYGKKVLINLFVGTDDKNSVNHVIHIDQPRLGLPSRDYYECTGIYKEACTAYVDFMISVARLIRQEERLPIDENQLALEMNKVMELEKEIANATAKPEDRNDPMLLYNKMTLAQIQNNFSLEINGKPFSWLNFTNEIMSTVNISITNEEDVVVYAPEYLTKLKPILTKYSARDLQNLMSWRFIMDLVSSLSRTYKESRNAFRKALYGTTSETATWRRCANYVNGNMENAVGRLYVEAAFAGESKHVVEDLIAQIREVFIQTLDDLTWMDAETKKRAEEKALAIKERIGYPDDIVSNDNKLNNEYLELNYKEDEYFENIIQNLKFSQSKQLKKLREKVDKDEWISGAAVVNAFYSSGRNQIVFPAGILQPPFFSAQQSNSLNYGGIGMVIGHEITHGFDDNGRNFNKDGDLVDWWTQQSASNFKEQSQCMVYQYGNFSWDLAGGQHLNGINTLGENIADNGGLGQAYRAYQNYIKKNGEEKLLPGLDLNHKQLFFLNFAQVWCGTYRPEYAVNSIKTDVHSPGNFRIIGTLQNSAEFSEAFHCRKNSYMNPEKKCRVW
Protocol: Synthetic Aβ40 (0.10 μg/μL) was added to a reaction mixture containing NEP (0.05 ng/μL) pre-incubated with SEQ ID NO:2 or scrambled control (9 μM) for 1 h at 37° C. Synthetic Aβ42 (0.05 μg/μL) was added to a reaction mixture containing NEP (0.15 ng/μL) preincubated with either scrambled control or SEQ ID NO:2 (9 μM) for 1 h at 37° C. Samples containing enzyme alone had only NEP buffer (Table 2). The cleavage reaction was allowed to continue in a thermomixer at 37° C. Aliquots of equal volume were taken over 24 h. Aliquots were immediately acidified with 0.1% trifluoroacetic acid (TFA) to terminate enzyme activity and snap frozen in dry ice. Samples were stored at −80° C. until analysed by LCMS.
Samples were analysed by LC-MS/MS using a quadrupole TOF mass spectrometer (MicroTOFq, Bruker Daltonics, Bremen, Germany) coupled online with a 1200 series nano-HPLC (Agilent technologies, Santa Clara, CA, USA). Samples were injected onto a zorbax 300SB reversed phase trap column with 95% solvent A (0.1% formic acid) at a flow rate of 10 μL/minute. The peptides were eluted over a 10-min gradient to 70% solvent B (80% acetonitrile, 0.1% formic acid) and separated on a 15-cm, 75-μmID zorbax 300SB nanocolumn. The eluent was nebulised and ionised using the Bruker nano-ESI source with a capillary voltage of 4500 V, dry gas at 180° C., flow rate of 5 L/minute and nebuliser gas pressure at 300 mbar. […]

H-SLFELGKMIL-NH2 [SEQ ID NO:2, H2N-SLFELGKMIL-NH2]
activity of MMP-2 in the presence of peptide (MMP-2): 0.7±0.2 μmol of substrate cleaved | effect on the activity of MMP-2 (MMP-2): did not affect | blood glucose compared with vehicle treated mice (STZ diabetic mouse model): lower | kidney IL-6 expression compared with vehicle treated mice (STZ diabetic mouse model): lower | kidney collagen I expression compared with vehicle treated mice (STZ diabetic mouse model): lower | kidney collagen III expression compared with vehicle treated mice (STZ diabetic mouse model): lower | amount of cleavage products Aβ1-12, Aβ1-16 and Aβ1-21 formed from Aβ42 over 24 h, compared with scrambled control (NEP): significantly higher
